This passage reports inhibition results from patent publication US20110028441A1, “NOVEL PHENYL-SUBSTITUTED PIPERAZINO-DIHYDROTHIENOPYRIMIDINES” (BOEHRINGER INGELHEIM INTERNATIONAL GMBH, priority 2007, published 2011).

Chain of PDE4B (Q07343 whole entry, species assumed): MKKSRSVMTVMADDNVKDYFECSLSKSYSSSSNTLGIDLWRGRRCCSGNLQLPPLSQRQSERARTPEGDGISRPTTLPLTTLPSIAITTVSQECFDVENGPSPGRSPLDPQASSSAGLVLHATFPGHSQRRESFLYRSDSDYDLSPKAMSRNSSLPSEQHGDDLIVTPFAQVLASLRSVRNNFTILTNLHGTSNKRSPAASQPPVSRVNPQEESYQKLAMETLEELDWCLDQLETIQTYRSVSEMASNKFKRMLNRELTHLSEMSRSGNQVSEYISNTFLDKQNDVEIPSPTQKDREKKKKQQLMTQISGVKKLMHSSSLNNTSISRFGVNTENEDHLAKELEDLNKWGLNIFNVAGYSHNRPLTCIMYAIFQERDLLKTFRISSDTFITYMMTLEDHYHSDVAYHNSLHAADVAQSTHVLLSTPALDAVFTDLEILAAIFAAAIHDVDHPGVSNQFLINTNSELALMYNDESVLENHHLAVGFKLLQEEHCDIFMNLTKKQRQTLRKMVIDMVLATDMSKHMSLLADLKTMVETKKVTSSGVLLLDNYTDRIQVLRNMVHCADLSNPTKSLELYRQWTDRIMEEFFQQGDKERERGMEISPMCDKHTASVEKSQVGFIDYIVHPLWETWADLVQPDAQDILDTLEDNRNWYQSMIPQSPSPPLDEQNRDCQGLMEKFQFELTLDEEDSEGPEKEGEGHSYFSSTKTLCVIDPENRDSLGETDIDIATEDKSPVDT

One assay concerns the target PDE4B (Homo sapiens, UniProt Q07343). As to the kind of experiment: Scintillation Proximity (SPA) Assay of PDE4B enzyme inhibition. The class given is biochemical. Conditions: read-out: % Inhibition PDE4B @ 1 μM. How it is done: The inhibitions (in %) at 1 μM of the individual Example substances are included in the following Tables of Examples and were determined as follows:
The Scintillation Proximity (SPA) Assays (GE Healthcare, No. TRKQ7090) make use of the different affinities of cyclic 3′-5′-adenosine monophosphate (cAMP, low affinity) and linear 5′-adenosine monophosphate (AMP, high affinity) for yttrium silicate scintillator beads. The cAMP specific phosphodiesterase (PDE) PDE4B cleaves the 3′-phosphoester bond of the tritium-labelled [H3]-cAMP to form the [H3]-5′-AMP. Because of its higher affinity for the scintillator beads this [H3]-AMP accumulates on the beads and causes scintillation events (flashes of light) which are measured in a Wallac Microbeta Scintillation Counter.
The test starts with one hours incubation of [H3]-cAMP with the PDE4B enzyme in assay buffer at 30° C., once with the Example substance that is to be tested (in a concentration of 1 μM) and once without the Example substance that is to be tested. After this incubation the reaction is stopped by the addition of the beads. The beads are given an opportunity to settle over the next 45 minutes, then they are measured in the Scintillation Counter. If the substance is capable of inhibiting the enzymatic activity of the PDE4B, less [H3]-AMP is formed during the incubation phase and fewer scintillation events can be measured.
For the compound `CN1C[C@@H](Nc2nc(N3CCN(c4cccc(F)c4)CC3)nc3c2[S+]([O-])CC3)CCC1=O` (stereo partly drawn) [Example 37, (S)-5-{2-[4-(3-FLUOROPHENYL)-PIPERAZIN-1-YL]-5-OXO-6,7-DIHYDRO-5H-5λ^4-THIENO[3,2-D]PYRIMIDIN-4-YLAMINO}-1-METHYLPIPERIDIN-2-ONE], the inhibition at 1 µM came to 97%.

With `CN1C[C@@H](Nc2nc(N3CCN(c4ccc(Cl)c(Cl)c4)CC3)nc3c2[S+]([O-])CC3)CCC1=O` (stereo partly drawn) [Example 59, (S)-5-{2-[4-(3,4-DICHLOROPHENYL)-PIPERAZIN-1-YL]-5-OXO-6,7-DIHYDRO-5H-5λ^4-THIENO[3,2-D]PYRIMIDIN-4-YLAMINO}-1-METHYLPIPERIDIN-2-ONE], the inhibition at 1 µM was 96%.

With `CN1C[C@@H](Nc2nc(N3CCN(c4ccc(Cl)c(F)c4)CC3)nc3c2[S+]([O-])CC3)CCC1=O` (stereo partly drawn) [Example 64, (S)-5-{2-[4-(4-CHLORO-3-FLUOROPHENYL)-PIPERAZIN-1-YL]-5-OXO-6,7-DIHYDRO-5H-5λ^4-THIENO[3,2-D]PYRIMIDIN-4-YLAMINO}-1-METHYLPIPERIDIN-2-ONE], the inhibition at 1 µM stood at 94%.

Still in this assay, the particulars now being: test substance 1 μM; one hour incubation of [H3]-cAMP with PDE4B enzyme at 30° C.; read-out: % Inhibition PDE4B @ 1 μM.
Take `CC(C)[C@H](CO)Nc1nc(N2CCN(c3ccccc3C#N)CC2)nc2c1[S+]([O-])CC2` (stereo partly drawn) [Example 2, 2-{4-[4-((R)-1-hydroxymethyl-2-methylpropylamino)-5-oxo-6,7-dihydro-5H-5λ^4-thieno[3,2-d]pyrimidin-2-yl]piperazin-1-yl}-benzonitrile]: the inhibition at 1 µM is 92%.

As to `CC(C)[C@H](CO)Nc1nc(N2CCN(c3ccccc3Cl)CC2)nc2c1[S+]([O-])CC2` (stereo partly drawn) [Example 4, (R)-2-{2-[4-(2-CHLOROPHENYL)-PIPERAZIN-1-YL]-5-OXO-6,7-DIHYDRO-5H-5λ^4-THIENO[3,2-D]PYRIMIDIN-4-YLAMINO}-3-METHYLBUTAN-1-OL], the inhibition at 1 µM worked out at 88%.

As to `[O-][S+]1CCc2nc(N3CCN(c4ccccc4Cl)CC3)nc(NC3(CO)CC3)c21` (stereo not drawn) [Example 7, (1-{2-[4-(2-chlorophenyl)-piperazin-1-yl]-5-oxo-6,7-dihydro-5H-5λ^4-thieno[3,2-d]pyrimidin-4-ylamino}-cyclopropyl)-methanol], the inhibition at 1 µM amounted to 94%.

`CN1C[C@@H](Nc2nc(N3CCN(c4ccccc4Cl)CC3)nc3c2[S+]([O-])CC3)CCC1=O` (stereo partly drawn) [Example 14, (S)-5-{2-[4-(2-chlorophenyl)-piperazin-1-yl]-5-oxo-6,7-dihydro-5H-5λ^4-thieno[3,2-d]pyrimidin-4-ylamino}-1-methylpiperidin-2-one]: the inhibition at 1 µM was found to be 96%.

In the case of `[O-][S+]1CCc2nc(N3CCN(c4ccccc4Cl)CC3)nc(NC3CCOCC3)c21` (stereo not drawn) [Example 19, {2-[4-(2-chlorophenyl)-piperazin-1-yl]-5-oxo-6,7-dihydro-5H-5λ^4-thieno[3,2-d]pyrimidin-4-yl}-(tetrahydropyran-4-yl)-amine], the inhibition at 1 µM worked out at 95%.

Regarding `COc1ccccc1N1CCN(c2nc3c(c(Nc4cccc(F)c4)n2)[S+]([O-])CC3)CC1` (stereo not drawn) [Example 21, (3-FLUOROPHENYL)-{2-[4-(2-METHOXYPHENYL)-PIPERAZIN-1-YL]-5-OXO-6,7-DIHYDRO-5H-5λ^4-THIENO[3,2-D]PYRIMIDIN-4-YL}-AMINE], the inhibition at 1 µM was determined as 96%.

With `N#Cc1ccccc1N1CCN(c2nc3c(c(Nc4cccc(F)c4)n2)[S+]([O-])CC3)CC1` (stereo not drawn) [Example 22, 2-{4-[4-(3-FLUOROPHENYLAMINO)-5-OXO-6,7-DIHYDRO-5H-5λ^4-THIENO[3,2-D]PYRIMIDIN-2-YL]-PIPERAZIN-1-YL}-BENZONITRILE], the inhibition at 1 µM worked out at 97%.

As for `[O-][S+]1CCc2nc(N3CCN(c4ccccc4Cl)CC3)nc(Nc3cccc(F)c3)c21` (stereo not drawn) [Example 24, {2-[4-(2-CHLOROPHENYL)-PIPERAZIN-1-YL]-5-OXO-6,7-DIHYDRO-5H-5λ^4-THIENO[3,2-D]PYRIMIDIN-4-YL}-(3-FLUOROPHENYL)-AMINE], the inhibition at 1 µM was determined as 95%.

As to `CC(C)C(CO)Nc1nc(N2CCN(c3cccc(F)c3)CC2)nc2c1[S+]([O-])CC2` [Example 27, (R)-2-{2-[4-(3-FLUOROPHENYL)-PIPERAZIN-1-YL]-5-OXO-6,7-DIHYDRO-5H-5λ^4-THIENO[3,2-D]PYRIMIDIN-4-YLAMINO}-3-METHYLBUTAN-1-OL], the inhibition at 1 µM was 96%.

For `Cc1cccc(N2CCN(c3nc4c(c(NC(CO)C(C)C)n3)[S+]([O-])CC4)CC2)c1` [Example 30, (R)-3-METHYL-2-[5-OXO-2-(4-m-TOLYLPIPERAZIN-1-YL)-6,7-DIHYDRO-5H-5λ^4-THIENO[3,2-D]PYRIMIDIN-4-YLAMINO]-BUTAN-1-OL], the inhibition at 1 µM is 94%.

On to `[O-][S+]1CCc2nc(N3CCN(c4cccc(F)c4)CC3)nc(NC3(CO)CC3)c21` (stereo not drawn) [Example 32, (1-{2-[4-(3-FLUOROPHENYL)-PIPERAZIN-1-YL]-5-OXO-6,7-DIHYDRO-5H-5λ^4-THIENO[3,2-D]PYRIMIDIN-4-YLAMINO}-CYCLOPROPYL)-METHANOL], for which the inhibition at 1 µM amounted to 97%.

As to `[O-][S+]1CCc2nc(N3CCN(c4cccc(F)c4)CC3)nc(NC3CCOCC3)c21` (stereo not drawn) [Example 42, {2-[4-(3-FLUOROPHENYL)-PIPERAZIN-1-YL]-5-OXO-6,7-DIHYDRO-5H-5λ^4-THIENO[3,2-D]PYRIMIDIN-4-YL}-(TETRAHYDROPYRAN-4-YL)-AMINE], the inhibition at 1 µM worked out at 96%.

For the compound `[O-][S+]1CCc2nc(N3CCN(c4cccc(F)c4)CC3)nc(Nc3cccc(F)c3)c21` (stereo not drawn) [Example 47, (3-FLUOROPHENYL)-{2-[4-(3-FLUOROPHENYL)-PIPERAZIN-1-YL]-5-OXO-6,7-DIHYDRO-5H-5λ^4-THIENO[3,2-D]PYRIMIDIN-4-YL}-AMINE], the inhibition at 1 µM worked out at 96%.

`Cc1cccc(N2CCN(c3nc4c(c(Nc5cccc(F)c5)n3)[S+]([O-])CC4)CC2)c1` (stereo not drawn) [Example 50, (3-FLUOROPHENYL)-[5-OXO-2-(4-m-TOLYLPIPERAZIN-1-YL)-6,7-DIHYDRO-5H-5λ^4-THIENO[3,2-D]PYRIMIDIN-4-YL]-AMINE]: the inhibition at 1 µM was 96%.

Take `CC(C)C(CO)Nc1nc(N2CCN(c3ccc(Cl)c(C#N)c3)CC2)nc2c1[S+]([O-])CC2` [Example 53, 2-chloro-5-{4-[4-((R)-1-hydroxymethyl-2-methyl-propylamino)-5-oxo-6,7-dihydro-5H-5λ^4-thieno[3,2-d]pyrimidin-2-yl]-piperazin-1-yl}-benzonitrile]: the inhibition at 1 µM is 89%.

In the case of `Cc1cc(N2CCN(c3nc4c(c(NC(CO)C(C)C)n3)[S+]([O-])CC4)CC2)ccc1Cl` [Example 54, (R)-2-{2-[4-(4-chloro-3-methylphenyl)-piperazin-1-yl]-5-oxo-6,7-dihydro-5H-5λ^4-thieno[3,2-d]pyrimidin-4-ylamino}-3-methylbutan-1-ol], the inhibition at 1 µM stood at 63%.

In the case of `CCC[C@H](CO)Nc1nc(N2CCN(c3ccc(Cl)c(C(F)(F)F)c3)CC2)nc2c1[S+]([O-])CC2` (stereo partly drawn) [Example 56, (R)-2-{2-[4-(4-chloro-3-trifluoromethylphenyl)-piperazin-1-yl]-5-oxo-6,7-dihydro-5H-5λ^4-thieno[3,2-d]pyrimidin-4-ylamino}-pentan-1-ol], the inhibition at 1 µM was determined as 94%.

On to `[O-][S+]1CCc2nc(N3CCN(c4ccc(Cl)c(Cl)c4)CC3)nc(NC3(CO)CC3)c21` (stereo not drawn) [Example 57, (1-{2-[4-(3,4-DICHLOROPHENYL)-PIPERAZIN-1-YL]-5-OXO-6,7-DIHYDRO-5H-5λ^4-THIENO[3,2-D]PYRIMIDIN-4-YLAMINO}-CYCLOPROPYL)-METHANOL], for which the inhibition at 1 µM is 96%.

For the compound `[O-][S+]1CCc2nc(N3CCN(c4ccc(Cl)c(Cl)c4)CC3)nc(NC3CCOCC3)c21` (stereo not drawn) [Example 58, {2-[4-(3,4-DICHLOROPHENYL)-PIPERAZIN-1-YL]-5-OXO-6,7-DIHYDRO-5H-5λ^4-THIENO[3,2-D]PYRIMIDIN-4-YL}-(TETRAHYDROPYRAN-4-YL)-AMINE], the inhibition at 1 µM was determined as 96%.

On to `CC(C)C(CO)Nc1nc(N2CCN(c3ccc(Cl)c(F)c3)CC2)nc2c1[S+]([O-])CC2` [Example 60, (R)-2-{2-[4-(4-chloro-3-fluorophenyl)-piperazin-1-yl]-5-oxo-6,7-dihydro-5H-5λ^4-thieno[3,2-d]pyrimidin-4-ylamino}-3-methylbutan-1-ol], for which the inhibition at 1 µM was determined as 94%.

As for `[O-][S+]1CCc2nc(N3CCN(c4ccc(Cl)c(F)c4)CC3)nc(NC3(CO)CC3)c21` (stereo not drawn) [Example 61, (1-{2-[4-(4-CHLORO-3-FLUOROPHENYL)-PIPERAZIN-1-YL]-5-OXO-6,7-DIHYDRO-5H-5λ^4-THIENO[3,2-D]PYRIMIDIN-4-YLAMINO}-CYCLOPROPYL)-METHANOL], the inhibition at 1 µM was found to be 95%.

Turning to `[O-][S+]1CCc2nc(N3CCN(c4ccc(Cl)c(F)c4)CC3)nc(NC3CCOCC3)c21` (stereo not drawn) [Example 62, {2-[4-(4-CHLORO-3-FLUOROPHENYL)-PIPERAZIN-1-YL]-5-OXO-6,7-DIHYDRO-5H-5λ^4-THIENO[3,2-D]PYRIMIDIN-4-YL}-(TETRAHYDROPYRAN-4-YL)-AMINE], the inhibition at 1 µM was determined as 95%.

`[O-][S+]1CCc2nc(N3CCN(c4ccc(Cl)c(F)c4)CC3)nc(Nc3cccc(F)c3)c21` (stereo not drawn) [Example 63, {2-[4-(4-CHLORO-3-FLUOROPHENYL)-PIPERAZIN-1-YL]-5-OXO-6,7-DIHYDRO-5H-5λ^4-THIENO[3,2-D]PYRIMIDIN-4-YL}-(3-FLUOROPHENYL)-AMINE]: the inhibition at 1 µM worked out at 95%.

In the case of `Cc1cc(Cl)ccc1N1CCN(c2nc3c(c(Nc4cccc(F)c4)n2)[S+]([O-])CC3)CC1` (stereo not drawn) [Example 67, {2-[4-(4-CHLORO-2-METHYLPHENYL)-PIPERAZIN-1-YL]-5-OXO-6,7-DIHYDRO-5H-5λ^4-THIENO[3,2-D]PYRIMIDIN-4-YL}-(3-FLUOROPHENYL)-AMINE], the inhibition at 1 µM is 94%.
